# Test results from patent US20140142170A1, “COMPOSITION AND METHOD FOR INFLUENCING ENERGY METABOLISM AND TREATING METABOLIC AND OTHER DISORDERS” (SIRTUIN VALLEY OY, priority 2010, published 2014).
# Values joined by “and” are separate entries in the source; they are usually repeats but may differ in a detail not shown here. Equal values may be shown once.
# Experiments:
# Type in all cases: cell-based
# [1] = test system: phospho-ACC; assay: phospho-ACC expression, immunoblot in 3T3 L1 preadipocytes; conditions: 24 hours; for phosphorylated ACC expression vs control: 3T3L1 preadipocytes, 100 μM
# [2] = test system: PGC-1α; assay: PGC-1α protein expression, immunoblot and densitometry in 3T3 L1 preadipocytes; conditions: 3T3L1 preadipocytes, 100 μM, 24 hours
# [3] = test system: PGC-1α; assay: as above; conditions: 60 μM, 24 hours, control = 100%
# Experimental: 3T3L1 cells were purchased from American Type Culture Collection (Manassas, Va., USA) and cultured in DMEM media containing 4.5 g/l glucose supplemented with 10% fetal bovine serum (Hyclone), 2 mM L-glutamine (Gibco), 100 U/ml penicillin, and 100 μg/ml streptomycin (Gibco). The cells were cultured at 37° C. in a humidified atmosphere with 10% CO2. […]
# Protein concentrations were measured using a BCA (bicinchoninic acid) protein assay kit (Cat.#23225; Pierce, Rockford, Ill.). Twenty (20) μg/lane of total cellular protein samples containing NuPAGE LDS sample buffer (Invitrogen) and reducing agent were loaded into 4-12% NuPAGE Bis-Tris gels (Invitrogen), subjected to gel electrophoresis, and transferred to polyvinylidene fluoride membranes (Amersham). For SIRT1 proteins, membranes were blocked in 0.05% TBS-Tween with 3% milk for 1 hour, incubated overnight at +4° C. with SIRT1 primary antibodies (Cat.#07-131, Millipore). For phospho-AMPKα and AMPKα proteins, blocking was done for 1 hour in 0.1% TBS-Tween with 5% milk. The membranes were incubated overnight at +4° C. with phospho-AMPKα (Cat. #2535, Cell Signaling) and AMPKα (Cat.#2532, Cell Signaling) primary antibodies. Horseradish peroxidase-conjugated anti-rabbit antibodies (Cat. #NA934V GE Health Care, Amersham, U.K) were used as secondary antibodies. For α-tubulin (loading control), membranes were blocked in 0.05% PBS-Tween with 3% milk for 1 hour, incubated with α-tubulin (Cat.# B-5-1-2, Sigma) primary antibodies for 1 hour at room temperature and horseradish peroxidase-conjugated anti-mouse (Cat. # NA 931V GE Health Care, Amersham, U.K.) IgG antibodies were used as secondary antibodies.
# The membranes were developed using chemiluminescence (ECL plus, GE Health Care), and images were captured in an Image Quant RT-ECL machine (version 1.0.1; GE Health Care). Densitometry and quantification of the bands were done by applying Quantity One software (Bio-Rad). The expression levels of the proteins were normalized to α-tubulin protein levels.
# PGC-1α as an indicator of SIRT1 activity: PGC-1α has been extensively described as a master regulator of mitochondrial biogenesis. […] When SIRT1 protein expression is induced, it interacts with and deacetylates PGC-1α in an NAD-dependent manner. Thus SIRT1 acts as a modulator of PGC-1a (Rodgers J T et al, Nature 2005). The effects of resveratrol, a nonselective SIRT1 activator, were associated with an induction of genes for oxidative phosphorylation and mitochondrial biogenesis, and were largely explained by a resveratrol-mediated decrease in PGC-1α acetylation and an increase in PGC-1α activity (Lagouge M, Cell 2006). Therefore, PGC-1α protein expression serves as an indicator of SIRT1 activity.
# 3T3L1 cells were purchased from American Type Culture Collection (Manassas, Va., USA) and cultured in DMEM media containing 4.5 g/l glucose supplemented with 10% fetal bovine serum (Hyclone), 2 mM L-glutamine (Gibco) and 100 U/ml penicillin, 100 μg/ml streptomycin (Gibco). The cells were cultured at 37° C. in a humidified atmosphere with 10% CO2. 3T3L1 preadipocytes were plated at 1×10^5 cells/well in 6 well plates and incubated at 37° C. in a humidified atmosphere with 10% CO2. The media was removed after 24 hours and the cells were treated with 60 μM GR24 or with 60 μM 1A, 1B, 5A, 5B, 6A, or 7A and incubated for 24 hours at 37° C. in a humidified atmosphere with 10% CO2. In all experiments, the controls were treated with the same volume of DMSO as was used to dissolve compounds in compound-treated cells to show and ensure that the actual change in protein expression in different treatments was only due to the compounds […]. The media was removed, cells were washed with PBS and cell lysates were collected on ice. Proteins were extracted using RIPA buffer along with protease and phosphatase inhibitors. Lysates were centrifuged for 30 min at high speed; supernatant was collected and stored at −70° C. until further analysis.
# [4] = test system: mitochondria of 3T3L1 preadipocytes; assay: Mitochondrial staining with MitoTracker green, confocal microscopy; conditions: 60 μM, 24 hours
# Experimental: The 3T3L1 preadipocytes were plated onto Ibidi u-slide 8 well plates at 1.6×10^4 cells/well and incubated at 37° C. in a humidified atmosphere with 10% CO2. The media was removed after 24 hours, the cells were treated with 60 μM GR24 and incubated for 24 hours at 37° C. in a humidified atmosphere with 10% CO2. After 24 hours of treatment, staining of mitochondria was done using 200 nM MitoTracker Mitochondrion-Selective Probes (Green FM probes Cat.#M7514, Invitrogen) according to the manufacturer's instructions. The cells were observed using a confocal microscope and images were taken at 40× oil immersion.
# Preadipocytes were treated with DMSO (Vehicle control) (FIG. 5A), 60 μM resveratrol (FIG. 5B) or 60 μM strigolactone analog GR24 (FIG. 5C) for 24 hours. Next, preadipocytes were stained with MitoTracker green and observed under a confocal microscope at 40× oil immersion. […] The white oval shaped structures are nucleus and the white thread-like structures around the nucleus in the cytoplasm are mitochondria. When compared to the control, there was an increase in mitochondrial biogenesis represented by elongated mitochondria, and an increase in mitochondrial activation represented by the intensity of fluorescence, in cells treated with resveratrol and GR24. […] Thus, GR24 enhances both biogenesis and activity of mitochondria, which is necessary to generate ATP.
smiles,measurement,setting,value
CC1=CC(O/C=C2/C(=O)O[C@@H]3c4ccccc4C[C@H]23)OC1=O (stereo partly drawn) [GR24],phospho-ACC expression (phosphorylation of ACC) compared to control,"[1]; 3T3 L1 preadipocytes, 60 μM",no change
same,phosphorylated ACC expression vs control,[1],down-regulated
same,phosphorylated ACC expression vs control,[1]; listed as GR 24,decrease
same,PGC-1α expression vs control,[2],significantly increased
same,PGC-1α expression vs control,[2]; listed as GR 24,activation
same,PGC-1α protein expression compared to control (100%),[3],168% and 164% and 198% and 220% and 149%
same,"increase in intensity of staining, visibility",[4],clearly visible only in the GR24 treated cells
same,mitochondrial activation (intensity of fluorescence) compared to control,[4],increase
same,mitochondrial biogenesis (elongated mitochondria) compared to control,[4],increase
